Measurements as given in patent US20090306012A1, “THERAPEUTIC PROTOCOLS” (priority 2001, published 2009).

Tested on: neutrophils
Test: Phase I clinical trial of 5-fluorouracil + HA (Hyfive) in metastatic colorectal cancer: toxicity, neutrophil counts
[1] = Patient 2, cycle Day 3, 5FU Cycle 1, HyFive Cycle 2
[2] = Patient 2, cycle Day 7, 5FU Cycle 1, HyFive Cycle 2
[3] = Patient 2, cycle Day 9, 5FU Cycle 1, HyFive Cycle 2
[4] = Patient 2, cycle Day 11, 5FU Cycle 1, HyFive Cycle 2
[5] = Patient 2, cycle Day 14, 5FU Cycle 1, HyFive Cycle 2
[6] = Patient 2, cycle Day 16, 5FU Cycle 1, HyFive Cycle 2
[7] = Patient 2, cycle Day 18, 5FU Cycle 1, HyFive Cycle 2
[8] = Patient 2, cycle Day 21, 5FU Cycle 1, HyFive Cycle 2
[9] = Patient 2, cycle Day 23, 5FU Cycle 1, HyFive Cycle 2
[10] = Patient 2, cycle Day 25, 5FU Cycle 1, HyFive Cycle 2
[11] = Patient 4, cycle Day 4, HyFive Cycle 1, 5FU Cycle 2
[12] = Patient 4, cycle Day 5, HyFive Cycle 1, 5FU Cycle 2
[13] = Patient 4, cycle Day 8, HyFive Cycle 1, 5FU Cycle 2
[14] = Patient 4, cycle Day 10, HyFive Cycle 1, 5FU Cycle 2
[15] = Patient 4, cycle Day 12, HyFive Cycle 1, 5FU Cycle 2
[16] = Patient 4, cycle Day 15, HyFive Cycle 1, 5FU Cycle 2
[17] = Patient 4, cycle Day 17, HyFive Cycle 1, 5FU Cycle 2
[18] = Patient 4, cycle Day 19, HyFive Cycle 1, 5FU Cycle 2
[19] = Patient 4, cycle Day 22, HyFive Cycle 1, 5FU Cycle 2
[20] = Patient 4, cycle Day 24, HyFive Cycle 1, 5FU Cycle 2
[21] = Patient 4, cycle Day 26, HyFive Cycle 1, 5FU Cycle 2
[22] = Patient 5, cycle Day 5, 5FU Cycle 1, HyFive Cycle 2
[23] = Patient 5, cycle Day 10, 5FU Cycle 1, HyFive Cycle 2
[24] = Patient 5, cycle Day 12, 5FU Cycle 1, HyFive Cycle 2
[25] = Patient 5, cycle Day 15, 5FU Cycle 1, HyFive Cycle 2
[26] = Patient 5, cycle Day 17, 5FU Cycle 1, HyFive Cycle 2
[27] = Patient 5, cycle Day 19, 5FU Cycle 1, HyFive Cycle 2
[28] = Patient 5, cycle Day 22, 5FU Cycle 1, HyFive Cycle 2
[29] = Patient 5, cycle Day 24, 5FU Cycle 1, HyFive Cycle 2
[30] = Patient 5, cycle Day 26, 5FU Cycle 1, HyFive Cycle 2
[31] = Patient 6, cycle Day 3, 5FU Cycle 1, HyFive Cycle 2
[32] = Patient 6, cycle Day 8, 5FU Cycle 1, HyFive Cycle 2
[33] = Patient 6, cycle Day 10, 5FU Cycle 1, HyFive Cycle 2
[34] = Patient 6, cycle Day 12, 5FU Cycle 1, HyFive Cycle 2
[35] = Patient 6, cycle Day 15, 5FU Cycle 1, HyFive Cycle 2
[36] = Patient 6, cycle Day 17, 5FU Cycle 1, HyFive Cycle 2
[37] = Patient 6, cycle Day 19, 5FU Cycle 1, HyFive Cycle 2
[38] = Patient 6, cycle Day 22, 5FU Cycle 1, HyFive Cycle 2
[39] = Patient 6, cycle Day 24, 5FU Cycle 1, HyFive Cycle 2
[40] = Patient 6, cycle Day 26, 5FU Cycle 1, HyFive Cycle 2
[41] = Patient 7, cycle Day 3, HyFive Cycle 1, 5FU Cycle 2
[42] = Patient 7, cycle Day 5, HyFive Cycle 1, 5FU Cycle 2
[43] = Patient 7, cycle Day 8, HyFive Cycle 1, 5FU Cycle 2
[44] = Patient 7, cycle Day 10, HyFive Cycle 1, 5FU Cycle 2
[45] = Patient 7, cycle Day 15, HyFive Cycle 1, 5FU Cycle 2
[46] = Patient 7, cycle Day 17, HyFive Cycle 1, 5FU Cycle 2
[47] = Patient 7, cycle Day 19, HyFive Cycle 1, 5FU Cycle 2
[48] = Patient 7, cycle Day 22, HyFive Cycle 1, 5FU Cycle 2
[49] = Patient 7, cycle Day 24, HyFive Cycle 1, 5FU Cycle 2
[50] = Patient 7, cycle Day 26, HyFive Cycle 1, 5FU Cycle 2

Procedure: The 5-FU±HA was given by intravenous administration over one hour on a four week cycle. The initial dose of 5-FU in this study was 450 mg/m^2 daily for three days and the dose of HA 500 mg/m^2 with each administration of 5-FU. Dose escalation occurred in two steps to reach the standard dose of 450 mg/m^2 for five consecutive days with each cycle. Therefore, the initial dose level was 450 mg/r^2 daily for three days, the next 450 mg/m^2 for four days and the final 450 mg/m^2 daily for five days.

## O=c1[nH]cc(F)c(=O)[nH]1 [5FU, 5-fluorouracil]
[1]
  Neutrophil Count: 7.6
  Neutrophil Count as % Day 1: 82%
[2]
  Neutrophil Count: 8.4
  Neutrophil Count as % Day 1: 90%
[3]
  Neutrophil Count: 8.3
  Neutrophil Count as % Day 1: 89%
[4]
  Neutrophil Count: 6.8
  Neutrophil Count as % Day 1: 73%
[5]
  Neutrophil Count: 7
  Neutrophil Count as % Day 1: 75%
[6]
  Neutrophil Count: 7.3
  Neutrophil Count as % Day 1: 78%
[7]
  Neutrophil Count: 8.4
  Neutrophil Count as % Day 1: 90%
[8]
  Neutrophil Count: 8.2
  Neutrophil Count as % Day 1: 88%
[9]
  Neutrophil Count: 7.8
  Neutrophil Count as % Day 1: 84%
[10]
  Neutrophil Count: 8.7
  Neutrophil Count as % Day 1: 94%
Patient 2 L-F (Day 3 Tx), cycle Day 1, 5FU Cycle 1, HyFive Cycle 2
  Neutrophil Count: 9.3
[11]
  Neutrophil Count: 4.4
  Neutrophil Count as % Day 1: 86%
[12]
  Neutrophil Count: 4.4
  Neutrophil Count as % Day 1: 86%
[13]
  Neutrophil Count: 5
  Neutrophil Count as % Day 1: 98%
[14]
  Neutrophil Count: 10.3
  Neutrophil Count as % Day 1: 202%
[15]
  Neutrophil Count: 6.9
  Neutrophil Count as % Day 1: 135%
[16]
  Neutrophil Count: 6.7
  Neutrophil Count as % Day 1: 131%
[17]
  Neutrophil Count: 7.5
  Neutrophil Count as % Day 1: 147%
[18]
  Neutrophil Count: 6.5
  Neutrophil Count as % Day 1: 127%
[19]
  Neutrophil Count: 6.1
  Neutrophil Count as % Day 1: 120%
[20]
  Neutrophil Count: 7.9
  Neutrophil Count as % Day 1: 155%
[21]
  Neutrophil Count: 5.3
  Neutrophil Count as % Day 1: 104%
Patient 4 C-X (4 Day Tx), cycle Day 1, HyFive Cycle 1, 5FU Cycle 2
  Neutrophil Count: 5.1
[22]
  Neutrophil Count: 4.5
  Neutrophil Count as % Day 1: 107%
[23]
  Neutrophil Count: 4.1
  Neutrophil Count as % Day 1: 98%
[24]
  Neutrophil Count: 4.3
  Neutrophil Count as % Day 1: 102%
[25]
  Neutrophil Count: 3.7
  Neutrophil Count as % Day 1: 88%
[26]
  Neutrophil Count: 3.3
  Neutrophil Count as % Day 1: 79%
[27]
  Neutrophil Count: 4.3
  Neutrophil Count as % Day 1: 102%
[28]
  Neutrophil Count: 4.3
  Neutrophil Count as % Day 1: 102%
[29]
  Neutrophil Count: 4
  Neutrophil Count as % Day 1: 95%
[30]
  Neutrophil Count: 4.5
  Neutrophil Count as % Day 1: 107%
Patient 5 J-M (5 Day Tx), cycle Day 1, 5FU Cycle 1, HyFive Cycle 2
  Neutrophil Count: 4.2
[31]
  Neutrophil Count: 4.3
  Neutrophil Count as % Day 1: 81%
[32]
  Neutrophil Count: 4.5
  Neutrophil Count as % Day 1: 85%
[33]
  Neutrophil Count: 6.6
  Neutrophil Count as % Day 1: 125%
[34]
  Neutrophil Count: 4.5
  Neutrophil Count as % Day 1: 85%
[35]
  Neutrophil Count: 4.2
  Neutrophil Count as % Day 1: 79%
[36]
  Neutrophil Count: 5.5
  Neutrophil Count as % Day 1: 104%
[37]
  Neutrophil Count: 5.3
  Neutrophil Count as % Day 1: 100%
[38]
  Neutrophil Count: 5.7
  Neutrophil Count as % Day 1: 108%
[39]
  Neutrophil Count: 5.4
  Neutrophil Count as % Day 1: 102%
[40]
  Neutrophil Count: 5
  Neutrophil Count as % Day 1: 94%
Patient 6 J-B (5 Day Tx), cycle Day 1, 5FU Cycle 1, HyFive Cycle 2
  Neutrophil Count: 5.3
[41]
  Neutrophil Count: 2.3
  Neutrophil Count as % Day 1: 77%
[42]
  Neutrophil Count: 2.8
  Neutrophil Count as % Day 1: 93%
[43]
  Neutrophil Count: 3.2
  Neutrophil Count as % Day 1: 107%
[44]
  Neutrophil Count: 2.5
  Neutrophil Count as % Day 1: 83%
[45]
  Neutrophil Count: 2.7
  Neutrophil Count as % Day 1: 90%
[46]
  Neutrophil Count: 2.5
  Neutrophil Count as % Day 1: 83%
[47]
  Neutrophil Count: 3
  Neutrophil Count as % Day 1: 100%
[48]
  Neutrophil Count: 3.4
  Neutrophil Count as % Day 1: 113%
[49]
  Neutrophil Count: 3.1
  Neutrophil Count as % Day 1: 103%
[50]
  Neutrophil Count: 3.5
  Neutrophil Count as % Day 1: 117%
Patient 7 V-D (5 Day Tx), cycle Day 1, HyFive Cycle 1, 5FU Cycle 2
  Neutrophil Count: 3
